The test relates to spinal cord dorsal horn (L4) neuronal oscillation. As to the kind of experiment: Spinal cord dorsal horn LFP/PSD recording after intradermal capsaicin injection (model of acute pain). Type of test: in vivo, rat. To be noted: anesthetized rats, FIG. 1B. The procedure: FIG. 1A is a schematic showing electrode placement in the spinal cord dorsal horn (L4) for the recoding of local field potential (LFP) from anesthetized rats (n=3 rats/group).
Experiments were conducted on anesthetized Sprague Dawley rats (200-250 g). […] LFP was sampled at a high frequency (25,000 Hz) and down-sampled offline to 250 Hz.
Natural sensory stimuli (e.g. brush and pinch) and intradermal injections of capsaicin were applied to the receptive field in the hindpaw corresponding to the recording site in the spinal cord. […] PSD plots the distribution of the power amplitude of a waveform as a function of frequency. Spontaneous oscillation in the spinal cord dorsal horn was enhanced compared to baseline LFP recording in response to capsaicin injection in the ipsilateral foot within physiologically relevant frequency bands, e.g., theta and alpha, oscillated at baseline. […] Thus, oscillation was normalized with systemic administration of an analgesic compound.

With `COc1cc(CNC(=O)CCCC/C=C/C(C)C)ccc1O` [capsaicin], the “Spontaneous oscillation in the spinal cord dorsal horn (PSD) compared to baseline LFP recording” value (intradermal 5% capsaicin injection in the ipsilateral foot, theta and alpha bands) is listed as “enhanced”. For `CC(C)Cc1ccc(C(C)C(=O)O)cc1` (centres unmarked) [ibuprofen], the “Effect on capsaicin-enhanced PSD normalized to baseline” value (ibuprofen 400 mg/Kg intraperitoneally, after intradermal 5% capsaicin, n=3 rats/group) is recorded as “mitigation of the enhanced PSD”.

The values are drawn from US10835170B2, “Methods for detecting neuronal oscillation in the spinal cord associated with pain and diseases or disorders of the nervous system” (Rhode Island Hospital, priority 2015, dated 2020).
